Here are results for six compounds from patent US7939557B2, “Vascular endothelial receptor specific inhibitors” (Nova Southeastern University, priority 2006, dated 2011).

The IC50 is the concentration needed to halve the response being measured. By EC50 is commonly meant the concentration needed to bring the measured effect to its halfway point.

Data set [1] concerns Human umbilical vein endothelial cell. Briefly: In Vitro Angiogenesis Assay (morphogenesis / tube formation on Matrigel, ECMatrix kit). The data set is classed as cell-based. More on the design: key to Results (In Vitro Angiogenesis Assay score): Individual cells, well separated (+++++); Cells begin to migrate and align themselves (++++); Cells begin to line but not sprouting (+++); Visible Sprouting (++); Closed polygons begins to form (+). The following applies: for Results (In Vitro Angiogenesis Assay score): HUVECs on ECMatrix, 8 hours at 37° C., inhibitors 1 mM and 10 mM, higher score = greater inhibition of angiogenesis. As to the method:
Human umbilical vein endothelial cell was purchased from Cambrex Co. (East Rutherford, N.J.) and maintained in EGM (Endothelial Growth Medium) supplemented with 2% FBS, 0.1% EGF, 0.1% Hydrocortisone, 0.1% GA-1000 and 0.4% BBE.
The morphogenesis assay on Matrigel was performed according to the manufacturer's instructions (Chemicon International). The ECMatrix™ kit consists of laminin, collagen type IV, heparan sulfate, proteoglycans, entactin and nidogen. It also contains various growth factors (TGF-β, FGF) and proteolytic enzymes (plasminogen, tPA, MMPs) that are normally produced in EHS tumors. The incubation condition was optimized for maximal tube-formation as follows: 50 μl of EC Matrix™ was suitably diluted in the ratio 9:1 with 10× diluent buffer and used for coating the 96-well plate. The coated plates were incubated at 37° C. for 1 hr. to allow the Matrix solution to solidify. In the meantime the HUVECs that were cultured for 24 hours in EGM with 2% FBS was trypsinised and re-suspended in the growth media and the cells were counted. After 1 hr. pre-incubation of the plate with Matrix solution, the HUVECs were plated at 10^4 cells/well in the absence or in the presence of different VEGFR inhibitors (1 mM and 10 mM). After 8 hours incubation at 37° C., the cell three-dimensional organization (cellular network structures) was examined under an inverted photomicroscope. Each treatment was performed in triplicate.
Activated endothelial cells form cellular networks (mesh like structures) resembling capillary tubes sprouting into the stromal space. The formation of these cellular networks is a dynamic process, which started migration and alignment of cells followed by the development of capillary tubes like structures, sprouting of new branches and finally the formation of the cellular networks. Although this in vitro angiogenesis kit is designed only as a qualitative assay, we have made an attempt to quantitate the degree of angiogenesis using a scoring method. The scoring was based on the extent of the cellular networks that were observed as follows:
Individual cells, well separated (+++++)
Cells begin to migrate and align themselves (++++)
Cells begin to line but not sprouting (+++)
Closed polygons begins to form (+).
According to our qualitative assessment, the higher the scoring the greater the efficiency of the compound for inhibiting endothelial cell mediated angiogenesis.

The next data set concerns GI-101A. Kind of data set: Cytotoxicity towards breast carcinoma cell line GI-101A. It counts as cell-based.
The next data set has as its system VEGFR. Kind of data set: Assay of VEGF Receptor Tyrosine Kinase Activity (VEGFR immunoprecipitated from cell lysate, non-radioactive PTK ELISA kit). The data set is classed as biochemical. From the text:
Protein Tyrosine Kinases (PTKs) perform a critical role in signal transduction pathways that control cell proliferation, differentiation, metabolism, and apoptosis. Phosphorylation of proteins by PTKs is essential for the regulation of these biological mechanisms and defects in these pathways may result in a number of human diseases, including cancer. The important aspect of these enzymes in cellular regulation is accentuated by the fact that for a large number of kinases a corresponding viral oncogene product has been identified. […] CHEMICON's non-radioactive Tyrosine Kinase Activity Assay provides a simple, convenient and specific method for quantification and comparative determination of a wide range of PTKs. […]
The non-radioactive Tyrosine Kinase Activity Assay Kit consists of a synthetic Biotinylated Peptide Substrate, a Biotinylated Phosphopeptide, purified Phosphotyrosine specific monoclonal antibody conjugated to horseradish peroxidase (HRP) and other components required to perform 96 ELISA-based assays. […] The quantity of phosphate incorporated into the tyrosine kinase substrate is determined utilizing the phosphopeptide standard curve. […] The assay reaction would be terminated by the addition of 100 μl of stop solution and finally, the absorbance was measure on a standard microplate reader at 450 nm. […]

A further data set has as its system MCF-7. Briefly: Cytotoxicity towards breast carcinoma cell line MCF-7. It counts as cell-based.

In the case of `O=C(Nc1ccc2c(c1)C(=O)NC2=O)c1nc2ccccc2s1` [Example 1], the “Results (In Vitro Angiogenesis Assay score)” value (“Results” below) in data set [1] was “++++”.

On to `N#Cc1ccc(C(=O)Nc2ccc3c(c2)C(=O)NC3=O)cc1` [Example 2], for which the “Results” value in data set [1] was “+++”.

On to `CC(=O)c1ccc(C(=O)Nc2ccc3c(c2)C(=O)NC3=O)cc1` [Example 3], for which the “Results” value in data set [1] is reported as “++”.

As to `O=C(Nc1cccc2c1C(=O)NC2=O)c1ccc([N+](=O)[O-])o1` [Example 4], the “cytotoxicity towards GI-101A” value in the data set on GI-101A was “produced cytotoxicity”. The IC50 in the data set with VEGFR (VEGFR immunoprecipitated from cell lysate, PTK assay, read-out: IC50 for inhibiting VEGFR kinase) was 400 nM. Further, the “inhibition of VEGFR associated tyrosine kinase activity (in words)” value in the data set with VEGFR (level of inhibition increased with concentration) is given as “able to inhibit the VEGFR associated tyrosine kinase activity”. In addition, the “Results” value in data set [1] is recorded as “+++++”. Further, the EC50 in data set [1] (Homo sapiens, Endothelial cell, estimated, read-out: EC50 value for anti-antigenic effect) was 25 nM. The “cytotoxicity towards MCF-7” value with MCF-7 is “produced cytotoxicity”.

As for `O=C(Nc1cccc2c1C(=O)NC2=O)c1ccc(S(=O)(=O)N2CCCCC2)cc1` [Example 5], in data set [1], the “Results” value is reported as “+++”.

As to `O=C(Nc1cccc2c1C(=O)NC2=O)c1ccc(Cl)s1` [Example 6], the “Results” value in data set [1] is reported as “+++”.
